Results on 31 compounds are retold here after patent US9206191B2, “Indazoles for the treatment and prophylaxis of respiratory syncytial virus infection” (Hoffmann-La Roche Inc., priority 2012, dated 2015).

Broadly, the EC50 is the concentration giving half of the maximal effect.

The test relates to RSV Long strain. The experiment in a line: Viral Cytopathic Effect (CPE) Assay. In kind it is cell-based. The settings on record: human respiratory syncytial virus, 144 h, cell viability after 6 days, Cell Counting kit-8.
Consider `CS(=O)(=O)c1nn(Cc2nc3cc(Cl)ccc3n2-c2ccc(F)nc2)c2cnccc12` [Example 3-2, 1-{[5-Chloro-1-(6-fluoropyridin-3-yl)-1H-benzimidazol-2-yl]methyl}-3-(methylsulfonyl)-1H-pyrazolo[3,4-c]pyridine], for which the EC50 came to 18.7 nM.
Under `CC(O)(CCn1c(Cn2nc(S(C)(=O)=O)c3ccncc32)nc2cc(Cl)ccc21)C(F)(F)F` (stereo not shown) [Example 14, 4-(5-chloro-2-{[3-(methylsulfonyl)-1H-pyrazolo[3,4-c]pyridin-1-yl]methyl}-1H-benzimidazol-1-yl)-1,1,1-trifluoro-2-methylbutan-2-ol] stands 2.8 nM; under `CS(=O)(=O)c1nn(Cc2nc3cc(Cl)ccc3n2C2CCC(O)C2)c2c[n+]([O-])ccc12` (stereo not shown) [Example 2-12, 3-(5-Chloro-2-{[3-(methylsulfonyl)-6-oxido-1H-pyrazolo[3,4-c]pyridin-1-yl]methyl}-1H-benzimidazol-1-yl)cyclopentanol], 769 nM.
Under `CS(=O)(=O)c1nn(Cc2nc3cc(Cl)ccc3n2C2CCOC2)c2ccccc12` (stereo not shown) [Example 2-8, 1-{[5-Chloro-1-(tetrahydrofuran-3-yl)-1H-benzimidazol-2-yl]methyl}-3-(methylsulfonyl)-1H-indazole] stands 36.1 nM.
Under `CS(=O)(=O)CCn1c(Cn2nc(S(C)(=O)=O)c3ccccc32)nc2cc(Cl)ccc21` [Example 1-12, 1-({5-Chloro-1-[2-(methylsulfonyl)ethyl]-1H-benzimidazol-2-yl}methyl)-3-(methylsulfonyl)-1H-indazole] stands 26.2 nM; under `CS(=O)(=O)c1nn(Cc2nc3cc(Cl)ccc3n2C2CNC(=O)C2)c2cnccc12` (stereo not shown) [Example 7, 4-(5-Chloro-2-{[3-(methylsulfonyl)-1H-pyrazolo[3,4-c]pyridin-1-yl]methyl}-1H-benzimidazol-1-yl)pyrrolidin-2-one], 8.43 nM.
For the compound `CS(=O)(=O)c1nn(Cc2nc3cc(Cl)ccc3n2[C@H]2CC[C@H](O)C2)c2cnccc12` (relative stereo) [Example 2-36, trans-3-(5-chloro-2-{[3-(methylsulfonyl)-1H-pyrazolo[3,4-c]pyridin-1-yl]methyl}-1H-benzimidazol-1-yl)cyclopentanol], the EC50 was 2 nM.
Regarding `CC(C)S(=O)(=O)c1nn(Cc2nc3cc(Cl)ccc3n2CCCS(C)(=O)=O)c2ccccc12` [Example 1-9, 1-({5-Chloro-1-[3-(methylsulfonyl)propyl]-1H-benzimidazol-2-yl}methyl)-3-(propan-2-ylsulfonyl)-1H-indazole], the EC50 came out at 74.4 nM.
`CS(=O)(=O)c1nn(Cc2nc3cc(Cl)ccc3n2[C@H]2C[C@@](O)(CO)C2)c2cnccc12` [Example 2-46, trans-3-(5-chloro-2-{[3-(methylsulfonyl)-1H-pyrazolo[3,4-c]pyridin-1-yl]methyl}-1H-benzimidazol-1-yl)-1-(hydroxymethyl)cyclobutanol] returned a concentration for a half-maximal effect (EC50) of 7.2 nM.
With `CC(C)(O)CCCn1c(Cn2nc(S(C)(=O)=O)c3ccncc32)nc2cc(Cl)ccc21` [Example 2-38, 5-(5-chloro-2-{[3-(methylsulfonyl)-1H-pyrazolo[3,4-c]pyridin-1-yl]methyl}-1H-benzimidazol-1-yl)-2-methylpentan-2-ol] the figure was 8 nM; with `CS(=O)(=O)c1nn(Cc2nc3cc(Cl)cc(F)c3n2[C@@H]2CCS(=O)(=O)C2)c2cnccc12` [Example 12, 1-({5-chloro-1-[(3R)-1,1-dioxidotetrahydrothiophen-3-yl]-7-fluoro-1H-benzimidazol-2-yl}methyl)-3-(methylsulfonyl)-1H-pyrazolo[3,4-c]pyridine], 2 nM; with `CS(=O)(=O)c1nn(Cc2nc3cc(Cl)ccc3n2[C@H]2C[C@H](C(=O)O)C2)c2cnccc12` [Example 2-41, trans-3-(5-chloro-2-{[3-(methylsulfonyl)-1H-pyrazolo[3,4-c]pyridin-1-yl]methyl}-1H-benzimidazol-1-yl)cyclobutanecarboxylic acid], 7 nM.
For `CS(=O)(=O)c1nn(Cc2nc3cc(Cl)ccc3n2[C@@H]2CCN(S(C)(=O)=O)C2)c2cnccc12` [Example 6-6, 1-({5-Chloro-1-[(3R)-1-(methylsulfonyl)pyrrolidin-3-yl]-1H-benzimidazol-2-yl}methyl)-3-(methylsulfonyl)-1H-pyrazolo[3,4-c]pyridine], a half-maximal effect (EC50) was put at 3 nM.
In the case of `CS(=O)(=O)c1nn(Cc2nc3cc(Cl)ccc3n2[C@H]2C[C@@](C)(O)C2)c2cnccc12` [Example 2-33, cis-3-(5-Chloro-2-{[3-(methylsulfonyl)-1H-pyrazolo[3,4-c]pyridin-1-yl]methyl}-1H-benzimidazol-1-yl)-1-methylcyclobutanol], the 50% effective concentration (EC50) amounted to 9.85 nM.
Under `CS(=O)(=O)c1nn(Cc2nc3cc(Cl)ccc3n2[C@H]2CC[C@@](C)(O)CC2)c2cnccc12` [Example 2-37, cis-4-(5-chloro-2-{[3-(methylsulfonyl)-1H-pyrazolo[3,4-c]pyridin-1-yl]methyl}-1H-benzimidazol-1-yl)-1-methylcyclohexanol] stands 6 nM; under `CS(=O)(=O)c1nn(Cc2nc3cc(Cl)ccc3n2CCC(O)C(F)(F)F)c2cnccc12` (stereo not shown) [Example 2-42, 4-(5-chloro-2-{[3-(methylsulfonyl)-1H-pyrazolo[3,4-c]pyridin-1-yl]methyl}-1H-benzimidazol-1-yl)-1,1,1-trifluorobutan-2-ol], 1.6 nM; under `CC(C)(O)CCn1c(Cn2nc(S(C)(=O)=O)c3ccncc32)nc2cc(Cl)ccc21` [Example 2-29, 4-(5-Chloro-2-{[3-(methylsulfonyl)-1H-pyrazolo[3,4-c]pyridin-1-yl]methyl}-1H-benzimidazol-1-yl)-2-methylbutan-2-ol], 8.04 nM.
Regarding `CC(=O)N1CCC(n2c(Cn3nc(S(C)(=O)=O)c4ccccc43)nc3cc(Cl)ccc32)C1` (stereo not shown) [Example 6-2, 1-[3-(5-Chloro-2-{[3-(methylsulfonyl)-1H-indazol-1-yl]methyl}-1H-benzimidazol-1-yl)pyrrolidin-1-yl]ethanone], the EC50 came to 8.75 nM.
With `CS(=O)(=O)c1nn(Cc2nc3cc(Cl)ccc3n2C2CCC(O)CC2)c2cnccc12` (stereo not shown) [Example 2-11, 4-(5-Chloro-2-{[3-(methylsulfonyl)-1H-pyrazolo[3,4-c]pyridin-1-yl]methyl}-1H-benzimidazol-1-yl)cyclohexanol] the figure was 8.2 nM.
The compound `CS(=O)(=O)c1nn(Cc2nc3cc(Cl)ccc3n2CC2CCOC2)c2cnccc12` (stereo not shown) [Example 2-31, 1-{[5-Chloro-1-(tetrahydrofuran-3-ylmethyl)-1H-benzimidazol-2-yl]methyl}-3-(methylsulfonyl)-1H-pyrazolo[3,4-c]pyridine] returned an EC50 of 4.34 nM.
Take `CS(=O)(=O)c1nn(Cc2nc3cc(Cl)ccc3n2C2CCN(C(=O)CO)C2)c2cnccc12` (stereo not shown) [Example 2-17, 1-[3-(5-Chloro-2-{[3-(methylsulfonyl)-1H-pyrazolo[3,4-c]pyridin-1-yl]methyl}-1H-benzimidazol-1-yl)pyrrolidin-1-yl]-2-hydroxyethanone]: the 50% effective concentration (EC50) turned out to be 10.9 nM.
`CS(=O)(=O)CCCn1c(Cn2nc(S(C)(=O)=O)c3ccncc32)nc2cc(Cl)ccc21` [Example 1-11, 1-({5-Chloro-1-[3-(methylsulfonyl)propyl]-1H-benzimidazol-2-yl}methyl)-3-(methylsulfonyl)-1H-pyrazolo[3,4-c]pyridine]: the half-maximal effective concentration (EC50) was found to be 4.6 nM.
With `CS(=O)(=O)CCCn1c(Cn2cc(S(=O)(=O)C3CC3)c3ccccc32)nc2cc(Cl)ccc21` [Example 1-7, 5-Chloro-2-{[3-(cyclopropylsulfonyl)-1H-indol-1-yl]methyl}-1-[3-(methylsulfonyl)propyl]-1H-benzimidazole] the figure was 227 nM; with `CS(=O)(=O)c1nn(Cc2nc3cc(Cl)ccc3n2CCCC(F)(F)F)c2c[n+]([O-])ccc12` [Example 4-2, 1-{[5-Chloro-1-(4,4,4-trifluorobutyl)-1H-benzimidazol-2-yl]methyl}-3-(methylsulfonyl)-1H-pyrazolo[3,4-c]pyridine 6-oxide], 15.9 nM; with `CS(=O)(=O)c1nn(Cc2nc3cc(Cl)ccc3n2-c2ccc(F)nc2)c2c[n+]([O-])ccc12` [Example 3-3, 1-{[5-Chloro-1-(6-fluoropyridin-3-yl)-1H-benzimidazol-2-yl]methyl}-3-(methylsulfonyl)-1H-pyrazolo[3,4-c]pyridine 6-oxide], 1540 nM.
In turn, `CS(=O)(=O)c1nn(Cc2nc3cc(Cl)cc(F)c3n2CCCC(F)(F)F)c2cnccc12` [Example 5-2, 1-{[5-Chloro-7-fluoro-1-(4,4,4-trifluorobutyl)-1H-benzimidazol-2-yl]methyl}-3-(methylsulfonyl)-1H-pyrazolo[3,4-c]pyridine] returned an EC50 of 7 nM.
With `CS(=O)(=O)c1nn(Cc2nc3cc(Cl)ccc3n2C2C[C@@H](O)[C@H](O)C2)c2cnccc12` [Example 2-45, trans-4-(5-chloro-2-{[3-(methylsulfonyl)-1H-pyrazolo[3,4-c]pyridin-1-yl]methyl}-1H-benzimidazol-1-yl)cyclopentane-1,2-diol] the figure was 6.1 nM; with `CS(=O)(=O)c1nn(Cc2nc3cc(Cl)ccc3n2[C@@H]2CCN(CC(F)(F)F)C2)c2cnccc12` [Example 2-20, 1-({5-Chloro-1-[(3R)-1-(2,2,2-trifluoroethyl)pyrrolidin-3-yl]-1H-benzimidazol-2-yl}methyl)-3-(methylsulfonyl)-1H-pyrazolo[3,4-c]pyridine], 188 nM.
Under `CC(C)(O)C(=O)N1CC[C@@H](n2c(Cn3nc(S(C)(=O)=O)c4ccncc43)nc3cc(Cl)ccc32)C1` [Example 6-5, 1-[(3R)-3-(5-Chloro-2-{[3-(methylsulfonyl)-1H-pyrazolo[3,4-c]pyridin-1-yl]methyl}-1H-benzimidazol-1-yl)pyrrolidin-1-yl]-2-hydroxy-2-methylpropan-1-one] stands 13 nM.
Compound `C[C@@H](c1nc2cc(Cl)ccc2n1CCC(F)(F)F)n1nc(S(C)(=O)=O)c2ccncc21` [Example 15-2, 1-{(1S)-1-[5-Chloro-1-(3,3,3-trifluoropropyl)-1H-benzimidazol-2-yl]ethyl}-3-(methylsulfonyl)-1H-pyrazolo[3,4-c]pyridine] displayed a concentration for a half-maximal effect (EC50) of 68 nM.
The compound `CS(=O)(=O)c1nn(Cc2nc3cc(Cl)ccc3n2C2CCOCC2)c2ccccc12` [Example 2-6, 1-{[5-Chloro-1-(tetrahydro-2H-pyran-4-yl)-1H-benzimidazol-2-yl]methyl}-3-(methylsulfonyl)-1H-indazole] gave an EC50 of 21.8 nM.
